# T1: C3a receptor (C3aR) (Mus musculus, UniProt O09047)
# T1 construct: Effect of a C3a receptor antagonist (C3aRa) and a C5a receptor antagonist (C5aRa) on LPS-induced plasma IL-6 levels in DAF^−/− mice; from tissue; host or cells: living C57BL/6 DAF-/- mice (whole animal)
# T1 sequence (O09047 1-477): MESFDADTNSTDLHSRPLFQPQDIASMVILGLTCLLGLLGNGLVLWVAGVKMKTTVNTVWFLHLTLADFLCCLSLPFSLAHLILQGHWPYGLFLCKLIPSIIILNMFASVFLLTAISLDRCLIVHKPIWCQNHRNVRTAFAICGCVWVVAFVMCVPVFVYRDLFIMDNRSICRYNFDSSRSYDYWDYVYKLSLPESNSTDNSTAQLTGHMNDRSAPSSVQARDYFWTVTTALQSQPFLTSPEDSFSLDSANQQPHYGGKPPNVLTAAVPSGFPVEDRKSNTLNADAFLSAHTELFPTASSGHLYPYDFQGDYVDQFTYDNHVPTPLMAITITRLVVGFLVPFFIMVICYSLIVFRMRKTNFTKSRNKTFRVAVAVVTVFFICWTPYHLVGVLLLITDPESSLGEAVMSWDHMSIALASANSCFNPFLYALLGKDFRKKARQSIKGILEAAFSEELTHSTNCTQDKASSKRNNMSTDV
# T2: C5a receptor (C5aR) (Mus musculus, UniProt P30993)
# T2 construct: from tissue; host or cells: living mice (A4: C57BL/6 DAF-/-; A12: wild-type, with C5aR-/- mice as control)
# T2 sequence (P30993 1-351): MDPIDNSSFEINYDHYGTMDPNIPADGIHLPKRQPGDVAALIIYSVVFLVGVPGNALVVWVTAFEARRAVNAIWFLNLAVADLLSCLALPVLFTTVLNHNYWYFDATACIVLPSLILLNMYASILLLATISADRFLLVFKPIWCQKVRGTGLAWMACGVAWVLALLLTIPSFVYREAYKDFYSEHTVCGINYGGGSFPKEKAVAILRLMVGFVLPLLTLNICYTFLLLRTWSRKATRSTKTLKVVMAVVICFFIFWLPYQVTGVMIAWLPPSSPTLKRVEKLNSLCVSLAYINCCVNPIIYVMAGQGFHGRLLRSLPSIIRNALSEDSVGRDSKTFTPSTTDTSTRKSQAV
# T3: C5aR (Mus musculus, UniProt P30993)
# T3 construct: from tissue; host or cells: living mice (A4: C57BL/6 DAF-/-; A12: wild-type, with C5aR-/- mice as control)
# T3 sequence (P30993 1-351): T2 sequence (P30993 1-351)
# B1: IL-6: cytokine added to naive CD4 T cell cultures to drive Th-17 differentiation (protein, UniProt P08505 25-211, looked up)
# Interleukin-6: FPTSQVRRGDFTEDTTPNRPVYTTSQVGGLITHVLWEIVEMRKELCNGNSDCMNNDDALAENNLKLPEIQRNDGCYQTGYNQEICLLKISSGLLEYHSYLEYMKNNLKDNKKDKARVLQRDTETLIHIFNQEVKDLHKIVLPTPISNALLTDKLESQKEWLRTKTIQFILKSLEEFLKVTLRSTRQT
# B2: C5a: recombinant human C5a from Sigma-Aldrich; complement activation product, anaphylatoxin (protein, UniProt P01031 678-751, looked up)
# C5a anaphylatoxin: TLQKKIEEIAAKYKHSVVKKCCYDGACVNNDETCEQRAARISLGPRCIKAFTECCVVASQLRANISHKDMQLGR
# modifications: C5a anaphylatoxin
# Experiments:
# C3a receptor (C3aR) = target: T1, C3a receptor (C3aR); test: LPS-induced plasma IL-6 in DAF−/− mice treated with C3a receptor antagonist; type: in vivo; details: 30 mg/kg i.p. 30 minutes before LPS
# Method: (§1) Mice were injected with the following TLR ligands: LPS (20 mg/kg in PBS, i.p.), zymosan (1 g/kg in 0.9% saline, i.p.), CpG (20 mg/kg in PBS, i.p.). In some experiments, mice were also treated with CVF (15 U/mouse in saline, i.p.), SB290157 (30 mg/kg in 20% polyethylene glycol 400 in saline, i.p.), AcPhe (50 μg/mouse in PBS, i.p.). EDTA (20 mM) anti-coagulated blood samples were collected from the tail vein or vena cava. Plasma was prepared by centrifugation at 1000×g for 15 min at 4° C. and stored as small aliquots at −80° C.
# C5a receptor (C5aR) = target: T2, C5a receptor (C5aR); test: LPS-induced plasma IL-6 in DAF−/− mice treated with C5a receptor antagonist; type: in vivo; details: 50 μg/mouse i.p. 30 minutes before LPS
# Method: as §1
# TLR2/6 signaling = test: Plasma cytokine ELISA in mice after zymosan or zymosan/CVF treatment; type: in vivo; details: wild-type mice co-treated with zymosan and CVF, 3 hours
# Method: as §1
# naive CD4 T cells = test: Th-17 differentiation of purified naive CD4 T cells (anti-CD3/CD28) with cytokines or mouse sera, FACS; type: cell-based, mice; details: for Th-17 differentiation driven by serum of mice treated with the substance alone: naive CD4 T cells from wild-type mice, plate-bound anti-CD3 and CD28; for Effect of co-treatment on Th-17 differentiation driven by serum of LPS-treated mice: serum of mice co-treated with LPS and the substance; for Th-17 differentiation, cytokine alone: cells treated with the cytokine alone
# Text: To test whether the CVF-augmented inflammatory cytokine production promotes Th-17 differentiation, purified naive CD4 T cells from wild-type mice were stimulated in vitro with plate-bound anti-CD3 and CD28 in the presence of specific cytokines or sera of control (naive mouse) or LPS-, CVF-treated mice. […] The augmenting effect of CVF on LPS-dependent Th-17 differentiation required C3 and C5aR but not C3aR.
# The ability of C5a-induced augmentation of serum inflammatory cytokine production to promote Th-17 differentiation was assessed. Purified naive CD4 T cells from wild-type mice were stimulated in vitro with plate-bound anti-CD3 and CD28 in the presence of specific cytokines or sera of control (naive mouse) or LPS-, C5a-treated mice. […] Treatment of the cells with IL-6 alone or TGF-β alone had no effect on Th-17 differentiation. […] Thus the augmenting effect of C5a on LPS-dependent Th-17 differentiation required C5aR. These findings indicate that complement activation products, particularly C5a, synergize with the TLR activation pathway to augment inflammatory cytokine production. The complement system, through interaction with TLR, augments Th-17 differentiation and therefore plays a role in autoimmune tissue injury. FIGS. 8-11 provide evidence for this conclusion. Thus, inhibiting complement activation is a therapeutic approach for treating Th-17 T cell mediated autoimmune diseases such as multiple sclerosis, Lupus, inflammatory bowel disease, GvHD and transplant rejection.
# C5aR [1] = target: T3, C5aR; test: Synergistic effect of C5a with LPS on serum IL-6 in mice; type: in vivo
# Method: (§2) Next, the Synergistic effect of C5a with LPS in augmenting IL-6 production was tested. Instead of using the complement activator CVF, the complement activation product C5a was directly tested for its activity to synergize with LPS in IL-6 production. […] CVF treatment by itself has no effect on IL-6 production. Thus, the synergistic activity of C5a required C5aR as such an effect was not observed in C5aR^−/− mice (FIG. 10).
# [2] = tested on: LPS-induced cytokine production; test: Serum cytokine concentrations in mice treated with TLR and/or complement activators; type: in vivo; details: mice co-treated with LPS and CVF
# Method: A set of experiment was conducted to measure serum concentrations of cytokines in mice untreated (NT) or treated with TLR and/or complement activators. […] On the other hand, CVF reduced LPS-induced IL-12 production (FIG. 8). Thus, the effect of CVF on LPS-induced cytokine production is dependent on complement C3 and C5aR but not C3aR signaling.
# TLR4 signaling = test: Plasma cytokine ELISA in mice after LPS, CVF or LPS/CVF treatment; type: in vivo; details: 3 hours; for Reduction of LPS-induced IL-12p40 by CVF treatment: LPS/CVF vs LPS
# Method: as §1
# TLR9 = test: Plasma cytokine ELISA in mice after CpG, CVF or CpG/CVF treatment; type: in vivo; details: wild-type mice, CVF co-treatment with CpG
# Method: as §1
# [3] = tested on: C3 activation fragments (C3b/iC3b/C3c); test: Complement activation assay (sandwich ELISA of plasma C3 activation fragments); type: in vivo; details: plasma samples of CpG-treated mice
# Method: Levels of C3 activation fragments (C3b/iC3b/C3c) in plasma were measured by a sandwich ELISA. For quantification purposes, 1/500 serial dilutions of CVF-activated WT mouse plasma (prepared by adding 2.5 μg (1.2 units) of CVF to 50 μl plasma and incubating for 1 h at 37° C.) were used as a reference, and complement activation in all testing samples was normalized to this reference sample.
# [4] = Measurement of plasma LPS levels (Pyrochrome Kit) after LPS injection; type: in vivo, mice; details: 3 hours after LPS injection (20 mg/kg i.p.), n=12
# Method: as §1
# Plasma LPS levels were determined using the Pyrochrome Kit from Associates of CAPE COD Incorporated (East Falmouth, Mass.). Plasma samples were treated at 70° C. for 10 minutes before assays to heat-inactivate serine proteases. Levels were expressed as units/ml of endotoxin.
# [5] = tested on: NF-kB luciferase reporter gene in RAW264.7 cells; test: NF-kB luciferase reporter gene assay and TNF-α ELISA in transfected RAW 264.7 cells; type: cell-based, murine; details: transfected RAW264.7 cells
# Text: RAW 264.7 cells were co-transfected with NF-kB Luc (Clontech, Palo Alto, Calif.), human C5aR in pcDNA3 (UMA cDNA resource center, Rolla, Mo.) and the Rellina control vector (Promega, Madison, Wis.) using the Amaxa Nucleofector apparatus (Amaxa Biosystems, Germany). The RAW 264.7 cells expressed detectible levels of endogenous C5aR as assessed by FACS and RT-PCR. After transfection, they also became weakly positive for human C5aR as assessed by FACS. […] Cell culture supernatants were collected for IL-6 and TNF-α assays by ELISA. All assays were performed in triplicates.
# C5aR [6] = test: Synergistic effect of C5a with LPS on serum IL-6 in mice; type: in vivo; details: C5aR−/− mice
# Method: as §2
# [7] = wild-type mice, CVF co-treatment with LPS
# [8] = wild-type mice, CVF treatment alone
molecule,measurement,setting,value
NC(N)=NCCC[C@H](NC(=O)COCC(c1ccccc1)c1ccccc1)C(=O)O [SB 290157],Effect on the increase in LPS-induced IL-6 production,C3a receptor (C3aR),significantly (p<0.001) attenuated
AcPhe,Effect on the increase in LPS-induced IL-6 production,C5a receptor (C5aR),totally blocked
Cobra venom factor [CVF],Effect on zymosan-induced IL-6 production,TLR2/6 signaling,Markedly increased
same,Effect on zymosan-induced IL-12p40 production,TLR2/6 signaling,decreased
same,Th-17 differentiation driven by serum of mice treated with the substance alone,naive CD4 T cells,unable to drive Th-17 differentiation
same,Effect of co-treatment on Th-17 differentiation driven by serum of LPS-treated mice,naive CD4 T cells,strongly augmented
same,Serum IL-6 level,"C5aR [1]; mice co-treated with LPS, compared with LPS alone",greatly elevated
same,Effect on IL-6 production,"C5aR [1]; treatment by itself, without LPS",no effect
same,Effect on LPS-induced IL-12 production,[2],reduced
same,Effect on LPS-induced serum IL-1β,[2],augmented
same,Effect on LPS-induced serum IL-6,[2],augmented
same,Effect on LPS-induced serum TNF-α,[2],augmented
same,Reduction of LPS-induced IL-12p40 by CVF treatment,TLR4 signaling; IL-10−/− mice,22%
same,Plasma IL-10 level,TLR4 signaling; LPS/CVF-treated wild-type mice compared with LPS- or CVF-treated wild-type mice,strikingly elevated
same,Effect on LPS-induced plasma IL-6,TLR4 signaling; [7],greatly increased
same,Effect on LPS-induced plasma IL-12p40,TLR4 signaling; [7],decreased
same,Effect on IL-6 production,TLR4 signaling; [8],negligible effect
same,Effect on IL-12p40 production,TLR4 signaling; [8],negligible effect
same,Reduction of LPS-induced IL-12p40 by CVF treatment,TLR4 signaling; wild-type mice,87%
same,Effect on CpG-induced IL-1β production,TLR9,no significant impact
same,Effect on CpG-induced TNF-α production,TLR9,no significant impact
same,Effect on CpG-induced IL-6 production,TLR9; 3 hours,no significant impact
same,Effect on CpG-induced IL-12p40 production,TLR9; 3 hours,markedly suppressed
CpG 1826 (5′-TCCATGACGTFCCTGACGTT-3′),Complement activation in plasma,[3],detectable complement activation
TGF-β,"Th-17 differentiation, cytokine alone",naive CD4 T cells,no effect
lipopolysaccharide [LPS],Th-17 differentiation driven by serum of mice treated with the substance alone,naive CD4 T cells,active in driving Th-17 differentiation
same,Plasma LPS concentration,[4]; DAF−/− mice,1200±307 EU/ml
same,Plasma LPS concentration,[4]; wild-type mice,925±413 EU/ml
B1,Th-17 differentiation in the presence of TGF-β,naive CD4 T cells; IL-6 in the presence of TGF-β,differentiated into Th-17 cells
same,"Th-17 differentiation, cytokine alone",naive CD4 T cells,no effect
B2,Secretion of endogenous TNF-α,[5]; C5a (50 nM) with LPS (1000 ng/ml) per FIG. 4D legend,synergized with LPS
same,Secretion of endogenous TNF-α,[5]; C5a alone,negligible effect on its own
same,Th-17 differentiation driven by serum of mice treated with the substance alone,naive CD4 T cells,unable to drive Th-17 differentiation
same,Effect of co-treatment on Th-17 differentiation driven by serum of LPS-treated mice,naive CD4 T cells,strongly augmented
same,Synergistic effect with LPS on IL-6 production,C5aR [6],not observed

# — patent US20100119530A1, “Regulation of TLR Signaling by Complement” (priority 2007, published 2010)
